One assay concerns the target KRas G12C (Homo sapiens, UniProt P01116, G12C). As to the kind of experiment: KRas G12C Probe Occupancy TR-FRET Assay. Particulars: for IC50 concentrations relative to Examples 1, 3, 5, and 7 (the P atropisomer designations): comparison of M with P atropisomers, Table 3. The class given is binding. The source says: The purpose of this assay is to measure the ability of an inhibitor to compete with a probe for binding to and covalently modifying KRas G12C at codon 12. The signal is generated by the time-resolved transfer of fluorescence between europium on an antibody bound to KRas G12C Europium-labeled Anti-Histidine Tag Antibody LanthaScreen (the Eu Anti-His antibody) and fluorescent Tracer 647 (Alexa Fluor™) bound to KRas G12C through streptavidin and a biotinylated inhibitor (the “KRas Probe”, see Preparation 223).
Inhibitors are tested in dose response format from 10 mM stocks in 100% DMSO. The Labycyte Echo® 555 is used to dilute and transfer 100 nL per well containing a 10 point, 2.8-fold serial dilution to an assay plate. Two copies of the assay plate are prepared to measure the potency after 5 and 60 minutes incubation of the inhibitor with KRas G12C. His-tagged KRas G12C (20 nM) is added to the plates in assay buffer (20 mM Tris-HCl, pH 7.5, 0.01% TX-100, and 1 mM DTT). After 5 or 60 minutes incubation, 1 μM KRas Probe is added and allowed to covalently modify free KRas G12C for 1 hour. This is diluted 4-fold in buffer containing Eu Anti-His antibody and Streptavidin-Coated Tracer 647 (both from Life Technologies) to achieve KRas G12C (5 nM), Anti-His Antibody (2 nM), KRas Probe ([…]), and Streptavidin Coated Tracer 647 (500 nM). After 30 minutes, the fluorescent signal is read on an Envision™ Plate Reader (excitation at 340 nm, tracer emission (em) at […], and antibody emission at 615 nm). Maximum control wells lack inhibitor and minimum control wells lack both inhibitor and KRas G12C. The signal ratio (em at 665/em at 615) is converted to percent inhibition using the following equation: % Inhibition=100−[(Test Compound Signal−Median Minimum Signal)/(Median Maximum Signal−Median Minimum Signal)×100]. The IC50 is determined by fitting the percent inhibition at each inhibitor concentration to the four parameter nonlinear logistic equation using Genedata Screener®: y=(A+((B−A)/(1+((C/x)∧D)))) where, y=% inhibition, A=minimum asymptote, B=maximum asymptote, C=relative IC50 or the inhibitor concentration producing 50% inhibition within the fitted range of both asymptotes, and D=Hill Slope. Compounds within the scope of this disclosure are evaluated in this assay substantially as described above.

In assay [1] the test system is phosphorylation of p-ERK1/2 in human lung cancer cells H358. The assay is described as follows: H358 Cellular Phospho-ERK AlphaLISA. In kind it is cell-based. The settings on record: incubated for 2 hours with compound, p-ERK 1/2 (Thr202/Tyr204). How it is done:
Briefly, the AlphaLISA® SureFire® Ultra™ p-ERK 1/2 (Thr202/Tyr204) assay is a sandwich immunoassay for quantitative detection of phospho-ERK 1/2 (phosphorylated on Thr202/Tyr204 in ERK1, or Thr185/Tyr187 in ERK2) in cellular lysates using Alpha Technology (Perkin Elmer Cat #ALSU-PERK-A50K).
The next morning, 10 μL of serially-diluted (3-fold) test compounds (50 μM top concentration) and 10 μL of controls (Maximum signal wells: 5% DMSO and Minimum signal wells: 2 μM of N-(3-{3-cyclopropyl-5-[(2-fluoro-4-iodophenyl)amino]-6,8-dimethyl-2,4,7-trioxo-3,4,6,7-tetrahydropyrido[4,3-D]pyrimidin-1(2H)-yl}phenyl)acetamide (trametinib, as a positive control) are added to the cell plate and incubated for 2 hours in humid trays at 37° C./5% CO2. Lysis Buffer is prepared at ambient temperature containing a protease and phosphatase inhibitor cocktail. Culture medium is removed by inverting and shaking the cell plate in the sink and then blotting onto a paper towel. Lysis buffer is added to the cell plate (50 μL per well) and the plate is incubated at ambient temperature for 10 minutes on a shaker. For p-ERK detection, acceptor beads are diluted into a suspension mixture with buffer. Using a STARlet liquid handler, 5 μL of acceptor beads and 2 μL of cell lysate are transferred as a single-step in-tip dilution to a 384 well assay plate. The assay plate is sealed with foil and is incubated at ambient temperature for 2 hours. Donor beads are diluted into a suspension mixture with buffer. Using the STARlet, 5 μL of donor beads are added to the assay plate that is then sealed, wrapped with foil. The plate is incubated at ambient temperature for 2 hours in the dark. The assay plate is then read on an EnVision™ Plate Reader (Perkin Elmer) using a luminescence program.
The signal is converted to percent inhibition using the following equation: % Inhibition=100−[(Test Compound Signal−Median Minimum Signal)/(Median Maximum Signal−Median Min Signal)×100]. The Maximum signal is a control well without inhibitor.
(§1) Compounds within the scope of this disclosure are evaluated in this assay substantially as described above.
(In general: Alpha assays give light when donor and acceptor beads are brought close together.)

In assay [2] the test system is constitutive RAS GTPase activity in human lung cancer cells H358. The assay is described as follows: H358 Cellular Active RAS GTPase ELISA. The class given is cell-based. Particulars: serum free media, incubated for 2 hours with compound. How it is done:
Activated RAS (GTP-bound) in cell extracts specifically bind to the Raf-RBD. Bound RAS is detected with a primary antibody that recognizes human KRas. A secondary antibody conjugated with HRP recognizes the primary antibody and a development solution provides a chemiluminescent readout.
The next morning, 10 μL of serially-diluted (3-fold) test compounds (500 μM top concentration) and 10 μL of controls (Maximum signal wells: 5% DMSO and Minimum signal wells: 500 μM 1-[4-[6-chloro-8-fluoro-7-(3-hydroxy-1-naphthyl)quinazolin-4-yl]piperazin-1-yl]prop-2-en-1-one, WO2015054572 as an inhibitor) are added to the cell plate and incubated for 2 hours at 37° C./5% CO2. Complete Lysis/Binding Buffer is prepared containing Protease Inhibitor cocktail and GST-Raf-RBD and stored on ice. One hour before cell plate incubation is completed, 50 μL of GST-Raf-RBD is diluted in lysis/binding buffer, and buffer is added to the ELISA assay plate and which is incubated for 1 hour at 4° C. with gently rocking. After 2 hours, the cells are washed with 100 μL ice-cold PBS and lysed with 100 μL lysis/binding buffer. The cell plate is shaken for 10 minutes at ambient temperature. The cell plate is then centrifuged at 1500 rpm for 10 minutes at ambient temperature. During this time, 1×Wash Buffer is prepared at ambient temperature and then is used to wash (3×100 μL) the GST-Raf-RBD coated assay plate. After washing, 50 μL of cell lysate is added to the GST-Raf-RBD coated assay plate and incubated for 1 hour at ambient temperature with gentle shaking. During this incubation period, 1×Antibody Binding Buffer is prepared and brought to ambient temperature. The assay plate is washed 3×100 μL with 1×Wash Buffer and then 50 μL of Primary Antibody (diluted 1:500 in 1×Antibody Binding buffer) is added. The plate is incubated for 1 hour at ambient temperature. The assay plate is washed 3×100 μL with 1×Wash Buffer and then 50 μL of Secondary Antibody (diluted 1:5000 in 1×Antibody Binding buffer) is added and incubated for 1 hour at ambient temperature. The assay plate is washed 4×100 μL with 1×Wash buffer and then 50 μL of chemiluminescent working solution is added at ambient temperature. The assay plate is then read on an EnVision™ Plate Reader (Perkin Elmer) using a luminescence program.
The signal is converted to percent inhibition using the following equation: % Inhibition=100−[(Test Compound Signal−Median Minimum Signal)/(Median Maximum Signal−Median Minimum Signal)×100]. The Maximum signal is a control well without inhibitor.
as §1
(In general: ELISA stands for enzyme-linked immunosorbent assay.)

Where [3] appears, read: 5 minutes incubation of the inhibitor with His-tagged KRas G12C before KRas Probe, read-out: IC50 (nM) @ 5 min.
The mark [4] stands for this setting: 60 minutes incubation of the inhibitor with His-tagged KRas G12C before KRas Probe, read-out: IC50 (nM) @ 60 min.

Read-outs that look alike come from different tables or passages of the source. A value given as a limit tells only on which side of the number the result lay.

Sequence of KRas G12C (P01116 1-188 isoform P01116-2 G12C): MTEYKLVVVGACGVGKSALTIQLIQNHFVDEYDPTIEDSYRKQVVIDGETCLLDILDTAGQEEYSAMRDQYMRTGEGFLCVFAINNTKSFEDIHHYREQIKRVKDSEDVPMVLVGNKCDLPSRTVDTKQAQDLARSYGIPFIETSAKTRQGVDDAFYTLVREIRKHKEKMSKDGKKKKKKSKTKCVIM

For `C=CC(=O)N1CCN2C(=O)c3cc(Cl)c(-c4ccc(F)c5sc(N)nc45)c(Cl)c3OCC[C@H]2C1` (single isomer, unassigned) [Example 1], the half-inhibitory concentration (IC50) on KRas G12C (setting [3]) was 18600 nM; at KRas G12C (setting [4]), 16000 nM; in assay [1] it was 2460 nM; in assay [2] (read-out: IC50), 14400 nM.

For the molecule `C=CC(=O)N1CCN2C(=O)c3cc(Cl)c(-c4ccc(F)c5sc(N)nc45)c(Cl)c3OCC[C@H]2C1` (single isomer, unassigned) [Example 2], the IC50 was < 15 nM at KRas G12C (setting [3]), < 15 nM on KRas G12C (setting [4]) and 6.71 nM in assay [2] (read-out: IC50). For the same molecule, the “IC50 concentrations relative to Examples 1, 3, 5, and 7 (the P atropisomer designations)” value against KRas G12C is given as “superior IC50 concentrations”.

As to `C=CC(=O)N1CCN2C(=O)c3cc(F)c(-c4cccc5sc(N)c(C#N)c45)c(Cl)c3OCC[C@H]2C1` (single isomer, unassigned) [Example 3], the IC50 on KRas G12C (setting [3]) worked out at 451 nM; on KRas G12C (setting [4]), 843 nM; in assay [1], 206 nM; in assay [2] (read-out: IC50) it was 902 nM.

Take `C=CC(=O)N1CCN2C(=O)c3cc(F)c(-c4cccc5sc(N)c(C#N)c45)c(Cl)c3OCC[C@H]2C1` (single isomer, unassigned) [Example 4]: the IC50 at KRas G12C (setting [3]) was < 15 nM; on KRas G12C (setting [4]), < 15 nM; in assay [1] it was 1.31 nM; in assay [2] (read-out: IC50), 5.66 nM. Further, the “IC50 concentrations relative to Examples 1, 3, 5, and 7 (the P atropisomer designations)” value against KRas G12C is given as “superior IC50 concentrations”.

Regarding `C=CC(=O)N1CCN2C(=O)c3cc(F)c(-c4ccc(F)c5sc(N)c(C#N)c45)c(Cl)c3OCC[C@H]2C1` (single isomer, unassigned) [Example 5], the IC50 at KRas G12C (setting [3]) was found to be 3270 nM; at KRas G12C (setting [4]), 3250 nM; in assay [1] it was 330 nM; in assay [2], 1770 nM.

For the molecule `C=CC(=O)N1CCN2C(=O)c3cc(F)c(-c4ccc(F)c5sc(N)c(C#N)c45)c(Cl)c3OCC[C@H]2C1` (single isomer, unassigned) [Example 6], the IC50 is < 15 nM at KRas G12C (setting [3]), < 15 nM at KRas G12C (setting [4]), 0.649 nM in assay [1] and 3.31 nM in assay [2]. In addition, the “IC50 concentrations relative to Examples 1, 3, 5, and 7 (the P atropisomer designations)” value on KRas G12C is given as “superior IC50 concentrations”.

`C=CC(=O)N1CCN2C(=O)c3cc(F)c(-c4ccc(F)c5sc(N)c(C#N)c45)c(Cl)c3OC[C@H]2C1` (single isomer, unassigned) [Example 7]: the IC50 is 26900 nM at KRas G12C (setting [3]), 17900 nM at KRas G12C (setting [4]), 2980 nM in assay [1] and 23800 nM in assay [2] (read-out: IC50).

In the case of `C=CC(=O)N1CCN2C(=O)c3cc(F)c(-c4ccc(F)c5sc(N)c(C#N)c45)c(Cl)c3OC[C@H]2C1` (single isomer, unassigned) [Example 8], the IC50 on KRas G12C (setting [3]) was < 15 nM; at KRas G12C (setting [4]) it was < 15 nM; in assay [1], 0.902 nM; in assay [2] (read-out: IC50), 4.62 nM. In addition, on KRas G12C, the “IC50 concentrations relative to Examples 1, 3, 5, and 7 (the P atropisomer designations)” value is “superior IC50 concentrations”.

What is called IC50 is the concentration that inhibits the measured activity by half.

The values above are taken from patent publication US20250228848A1, “PROCESS FOR MAKING A KRAS G12C INHIBITOR” (ELI LILLY AND COMPANY, priority 2022, published 2025).
